K1/2 and Activity data for 6 compounds are collected here from ChEMBL document CHEMBL2074086, “Cloning, in vitro expression, and tissue distribution of a human prostaglandin transporter cDNA(hPGT)” (J Clin Invest, 1996).

For the data set, the target named is Solute carrier organic anion transporter family member 2A1 (Homo sapiens, UniProt Q92959). Put plainly: TP_TRANSPORTER: uptake in PGT-expressing HeLa cells. Type of data set: functional, cell-based.
On to `CCCCC[C@H](O)/C=C/[C@H]1[C@H](O)CC(=O)[C@@H]1CCCCCCC(=O)O` [ALPROSTADIL], for which the K1/2 amounted to 0.082 µM.

The compound `CCCCC[C@H](O)/C=C/[C@H]1[C@H](O)CC(=O)[C@@H]1C/C=C\CCCC(=O)O` [DINOPROSTONE] gave a K1/2 of 0.1 µM.

Regarding `CCCCC[C@H](O)/C=C/[C@@H]1[C@@H](C/C=C\CCCC(=O)O)[C@@H](O)C[C@H]1O` [DINOPROST], the K1/2 is 0.092 µM.

As to `CC#CCC(C)[C@H](O)/C=C/[C@@H]1[C@H]2C/C(=C/CCCC(=O)O)C[C@H]2C[C@H]1O` (stereo partly specified) [ILOPROST], the Activity entry is “is not a substrate [-]”.

Regarding `CCCCC[C@H](O)/C=C/[C@H]1C(=O)C[C@H](O)[C@@H]1C/C=C\CCCC(=O)O` [PROSTAGLANDIN D2], the K1/2 was 0.083 µM.

With `CCCCC[C@H](O)/C=C/[C@H]1OC(O)C[C@H](O)[C@@H]1C/C=C\CCCC(=O)O` (stereo partly specified) [THROMBOXANE B2], the K1/2 is 0.182 µM.
